The values that follow come from PMC5461267, “Membrane Guanylate Cyclase catalytic Subdomain: Structure and Linkage with Calcium Sensors and Bicarbonate” (Frontiers in Molecular Neuroscience, 2017).

Residue numbers refer to the chain shown, from its start. In names and notes the source's numbering stands.

Data set [1] deals with T1, CCD/CTE (aa 817-1054) of ROS-GC1 (Bos taurus, UniProt P55203, A1013R).
T1 construct: gene GUCY2D; dimer
In words: cyclic GMP radioimmunoassay, purified protein. Type of data set: biochemical. Conditions: 1 mM GTP, 4 mM MgCl2, pH 7.5, 37 °C.

Data set [2] concerns the target T2, ROS-GC1 (rod outer segment guanylate cyclase type 1), full-length recombinant (Bos taurus, UniProt P55203).
T2 construct: gene GUCY2D; full-length wild-type cDNA expressed in COS-7 cells; membrane fraction assayed; homodimer
T2 sequence (P55203 57-1110): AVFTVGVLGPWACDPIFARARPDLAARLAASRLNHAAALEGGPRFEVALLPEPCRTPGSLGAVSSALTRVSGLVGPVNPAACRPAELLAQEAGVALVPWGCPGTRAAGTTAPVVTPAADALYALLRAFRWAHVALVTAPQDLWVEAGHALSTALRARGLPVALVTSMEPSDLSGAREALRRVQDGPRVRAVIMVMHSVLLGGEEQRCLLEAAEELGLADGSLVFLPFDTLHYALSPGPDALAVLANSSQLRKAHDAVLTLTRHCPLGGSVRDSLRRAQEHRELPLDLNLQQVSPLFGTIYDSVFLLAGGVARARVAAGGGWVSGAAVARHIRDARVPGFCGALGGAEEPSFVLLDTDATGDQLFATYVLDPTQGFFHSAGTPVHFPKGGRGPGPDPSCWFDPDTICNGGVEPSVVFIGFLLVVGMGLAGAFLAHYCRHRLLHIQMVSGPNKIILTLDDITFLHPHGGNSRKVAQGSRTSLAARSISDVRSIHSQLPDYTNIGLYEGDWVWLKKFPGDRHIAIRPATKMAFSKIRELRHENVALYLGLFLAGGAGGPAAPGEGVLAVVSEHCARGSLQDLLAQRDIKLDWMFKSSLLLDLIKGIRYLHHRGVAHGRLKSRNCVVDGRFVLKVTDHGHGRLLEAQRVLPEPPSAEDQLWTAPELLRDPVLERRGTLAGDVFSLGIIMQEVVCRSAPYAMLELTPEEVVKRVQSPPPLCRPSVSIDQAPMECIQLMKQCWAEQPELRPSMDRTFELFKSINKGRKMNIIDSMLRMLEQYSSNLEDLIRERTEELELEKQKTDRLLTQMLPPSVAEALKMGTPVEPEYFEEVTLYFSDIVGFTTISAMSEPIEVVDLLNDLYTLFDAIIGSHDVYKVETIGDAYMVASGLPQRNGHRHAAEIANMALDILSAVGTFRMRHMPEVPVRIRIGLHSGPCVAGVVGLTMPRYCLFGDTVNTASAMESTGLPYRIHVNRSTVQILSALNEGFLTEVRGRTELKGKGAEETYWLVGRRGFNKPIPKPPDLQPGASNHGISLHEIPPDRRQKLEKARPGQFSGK
In words: cyclic GMP radioimmunoassay, COS cell membranes; Hill fit. The format is biochemical. Conditions: constant Mg2+, GTP 0-3 mM, pH 7.5, 37 °C; half-maximal concentration from Hill equation.

Data set [3] has as its target T3, CCD (aa fragment 817-965) of ROS-GC1 (Bos taurus, UniProt P55203, A1013R).
T3 construct: gene GUCY2D; homodimer
In words: cyclic GMP radioimmunoassay, purified protein. The format is biochemical. Conditions: 1 mM GTP, 4 mM MgCl2, pH 7.5, 37 °C.

Substrate in data set [4]: Nc1nc2c(ncn2[C@@H]2O[C@H](COP(=O)(O)OP(=O)(O)OP(=O)(O)O)[C@@H](O)[C@H]2O)c(=O)[nH]1
In words: cyclic GMP radioimmunoassay, COS cell membranes; Hill fit. Conditions: constant Mg2+, GTP 0-3 mM, pH 7.5, 37 °C, half-maximal concentration from Hill equation. Type of data set: biochemical, Bos taurus.

T3 sequence (P55203 873-1021 A1013R): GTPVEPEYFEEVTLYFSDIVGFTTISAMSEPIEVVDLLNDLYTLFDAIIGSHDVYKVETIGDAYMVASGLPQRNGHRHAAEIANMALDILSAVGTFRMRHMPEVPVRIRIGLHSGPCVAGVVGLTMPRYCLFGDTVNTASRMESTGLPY
T1 sequence (P55203 873-1110 A1013R): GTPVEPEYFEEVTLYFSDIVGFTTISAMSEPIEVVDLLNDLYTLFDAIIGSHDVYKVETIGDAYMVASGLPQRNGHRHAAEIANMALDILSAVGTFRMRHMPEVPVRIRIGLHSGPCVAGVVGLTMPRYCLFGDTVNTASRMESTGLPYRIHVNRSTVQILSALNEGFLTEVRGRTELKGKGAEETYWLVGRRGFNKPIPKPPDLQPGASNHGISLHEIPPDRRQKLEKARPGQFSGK

Regarding `Nc1nc2c(ncn2[C@@H]2O[C@H](COP(=O)(O)OP(=O)(O)OP(=O)(O)O)[C@@H](O)[C@H]2O)c(=O)[nH]1` [GTP], the “cyclic GMP radioimmunoassay, purified protein” value in data set [1] is “constructs lacked the TMD, illustrated by the CCD–CTE and CCD”; in data set [3], “The isolated soluble CCD construct contained only a minimal basal specific catalytic activity”. Moreover, in data set [2], the Km stood at 500 ± 30 µM.

B1: ROS-GC1 (rod outer segment guanylate cyclase type 1), full-length recombinant (Bos taurus; A1013R/C1002A) (protein)
chain: T2 sequence (P55203 57-1110) with C946A, A957R
notes: full-length wild-type cDNA expressed in COS-7 cells; membrane fraction assayed; homodimer
Regarding B1, the Km in data set [4] was determined as 640 ± 20 µM.

B2: ROS-GC1 (rod outer segment guanylate cyclase type 1), full-length recombinant (Bos taurus; A1013R/N1009A) (protein)
chain: T2 sequence (P55203 57-1110) with N953A, A957R
notes: as for B1
On to B2, for which, in data set [4], the Km was determined as 490 ± 10 µM.

As a reminder, the Km is the concentration of substrate that gives half-maximal velocity.
